20 compounds from PubChem BioAssay (NCI) can be followed below.

Where “and” joins values, the source holds several entries; their conditions need not be identical. Identical values can stand only once.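 Five concentrations, 48 hours, 96-well plates. GI50 = concentration required for 50% inhibition of growth. Definition used: TGI = concentration required for complete inhibition of growth.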 Where a SMILES comes first, the peptide text is derived from it. [ ]: non-standard residue; d: D form. The star is where a group is joined. NMeV = CN[C@H](C(=O)O)C(C)C; X29 = COc1ccc(CN*)c(OC)c1; Octanoyl = CCCCCCCC(=O)*; dNMeA = CN[C@H](C)C(=O)O A value given as a limit tells only on which side of the number the result lay.

Assay in all cases: DTP human tumour cell line panel, 48 h
Experiment [1] concerns 786-0 renal.
Experiment [2] deals with CCRF-CEM leukemia.
Experiment [3] has as its system HOP-62 NSCLC.
The subject of experiment [4] is MOLT-4 leukemia.
Experiment [5] relates to SK-MEL-5 melanoma.
Experiment [6] deals with U251 CNS.

One may read the TGI as the concentration giving total growth inhibition. Low readings indicate more potent growth arrest, high ones less potent growth arrest. Consider `CCCCCCCC(=O)N[C@H](C(=O)N[C@H](C(=O)N(C)[C@H](C(=O)N1CCC[C@H]1C(=O)N(C)[C@H](C)C(=O)NCc1ccc(OC)cc1OC)C(C)C)C(C)C)C(C)C` (Octanoyl-VV[NMeV]P[dNMeA]-X29), for which the TGI in experiment [1] was over 100 µM; in experiment [2], over 72.9 µM; in experiment [3] it was over 100 µM; in experiment [4] it was over 90.4 µM; in experiment [5] it was 13 µM; in experiment [6] it was over 85.5 µM.
Regarding `N#Cc1sc2c(c1OC(=O)c1ccccc1)c(=O)n(-c1ccccc1)c(=S)n2-c1ccccc1`, the TGI in experiment [1] is 85.1 µM; in experiment [2], 61.6 µM; in experiment [3] it was 46.5 µM; in experiment [4], 51.8 µM; in experiment [5], 28.5 µM; in experiment [6], 53.3 µM.
Take `COC1/C=C/C(C)C(C(C)C(OC)C(C)CCC(=O)C(C)C(C/C=C/N(C)C=O)OC)OC(=O)C=CC2OC2(C)CC(OC)C(OC)C2=CC(=O)O[C@@H](C(C)C(OC)CC(OC)/C=C/C(C)C(O)C1)[C@H]2O` (some centres undefined): the concentration for total growth inhibition (TGI) in experiment [1] was 0.0176 µM; in experiment [2], over 1.24 µM; in experiment [3], 0.0227 µM; in experiment [5], 0.0284 µM; in experiment [6] it was 0.0416 µM.
For `CC(=O)c1ccc2c(c1)CC1(C2)Cc2cc3c(cc2C1=O)CCC3` (centres undefined), the TGI in experiment [1] is 63.1 µM; in experiment [2] it was 59.2 µM; in experiment [3], 81.3 µM; in experiment [4], 21.8 µM; in experiment [5] it was 22.5 µM; in experiment [6], over 100 µM.
For the compound `COc1cc2c(cc1OC)C1C=NC(C2)c2cc(OC)c(OC)cc21` (centres undefined), the TGI in experiment [1], in experiment [3], in experiment [4], in experiment [5] and in experiment [6] was over 100 µM throughout.
Consider `C[C@]12CC[C@@H]3c4cc(OCC(F)(F)F)c(O)cc4CC[C@H]3[C@@H]1CC[C@@H]2O`, for which the TGI in experiment [1] was determined as 18.1 µM; in experiment [2], 15.2 µM; in experiment [3], 26.7 µM; in experiment [4], 18.9 µM; in experiment [5], 15.4 µM; in experiment [6] it was 18.3 µM.
Regarding `Cc1n[nH]c(=O)n1N1C(=O)CCCC1=O`, the TGI is over 100 µM in experiment [1]; over 100 µM in experiment [2]; over 100 µM in experiment [3]; 62.8 µM in experiment [4]; over 100 µM in experiment [5]; over 100 µM in experiment [6].
Turning to `Cc1ccc(NC(Nc2ccc(C)cc2C)=C(/C=C(\Cl)[N+](=O)[O-])[N+](=O)[O-])c(C)c1`, the TGI in experiment [1] came to 8.95 µM; in experiment [2], 1.72 µM; in experiment [3], 34.1 µM; in experiment [4], 4.82 µM; in experiment [5], 13.4 µM; in experiment [6] it was 23.6 µM.
With `C/C(=N\Nc1ccc([N+](=O)[O-])cc1[N+](=O)[O-])c1sc(-n2nc(-c3ccccc3)cc2-c2ccccc2)nc1C`, the TGI in experiment [1] is over 100 µM; in experiment [2], 50.9 µM; in experiment [3] it was over 100 µM; in experiment [4], 46.8 µM; in experiment [5], over 100 µM; in experiment [6], over 100 µM.
Take `CCN1CCC(C)OP1(=O)Cc1ccccc1` (centres undefined): the TGI in experiment [1], in experiment [3], in experiment [5] and in experiment [6] was over 100 µM in each case.
One may read the GI50 as the concentration that inhibits growth by half. Take `COC(=O)[C@@H]1CC(C(C[N+](=O)[O-])c2ccc(O[Si](C)(C)C(C)(C)C)cc2)C(=O)N1C(=O)OC(C)(C)C` (some centres undefined): the TGI in experiment [1], in experiment [2], in experiment [3], in experiment [4], in experiment [5] and in experiment [6] was over 100 µM each time. Moreover, the GI50 in experiment [4] is 14.4 µM and 31.4 µM; in experiment [5] it was > 100 µM and 39.9 µM.
Consider `Nc1n[n+](CC(=O)c2ccccc2)c2sc(-c3ccccc3)nn12`, for which the TGI in experiment [1], in experiment [2], in experiment [3], in experiment [4], in experiment [5] and in experiment [6] was over 100 µM in each case.
Take `CC1CC(C)C(C#N)N(C)c2ccccc21` (centres undefined): the TGI in experiment [1], in experiment [2], in experiment [3], in experiment [4] and in experiment [5] was over 100 µM in each case.
Consider `O=C(O)C12C3CCC(CC3)C1(C(=O)O)C1CCC2C1` (centres undefined), for which the TGI in experiment [1], in experiment [2], in experiment [3], in experiment [4], in experiment [5] and in experiment [6] was over 100 µM each time.
In the case of `CC1(C)C=Cc2c(cc(O)c3c(=O)c4cc(Cl)ccc4[nH]c23)O1`, the TGI is over 10 µM in experiment [1]; over 10 µM in experiment [2]; over 10 µM in experiment [3]; 8.22 µM in experiment [4]; 6.33 µM in experiment [5]; over 10 µM in experiment [6].
Consider `CCc1nn(CN2CCOCC2)c(=S)n1/N=C/c1ccc(-c2ccc(Cl)cc2)o1`, for which the TGI in experiment [1], in experiment [3], in experiment [4], in experiment [5] and in experiment [6] was over 100 µM each time.
On to `COc1cc(C2SCC(=O)N2c2cccc(Cl)c2)cc(OC)c1OC` (centres undefined), for which the TGI in experiment [1] is over 100 µM; in experiment [2], 91.2 µM; in experiment [4], over 100 µM; in experiment [5], over 100 µM; in experiment [6] it was over 100 µM.
As to `NC(N)=NCC[C@H](NC(=O)OCCCCCn1ccc(=O)[nH]c1=O)C(=O)O`, the TGI in experiment [1], in experiment [2], in experiment [3], in experiment [4], in experiment [5] and in experiment [6] was over 100 µM each time.
As to `CN1c2ccccc2C(=O)NC12CCN(CCCC(=O)c1ccc(F)cc1)CC2`, the TGI in experiment [1] was over 100 µM; in experiment [2] it was over 100 µM; in experiment [3], over 100 µM; in experiment [4] it was 71.2 µM; in experiment [5], 79.6 µM; in experiment [6], over 100 µM.
With `COc1c(F)c(F)c(/C(O)=C\c2nc3ccccc3[nH]c2=O)c(F)c1F`, the TGI is 5.99 µM in experiment [1]; over 10 µM in experiment [2]; over 10 µM in experiment [3]; over 10 µM in experiment [4]; over 10 µM in experiment [5].
